ChEMBL document CHEMBL1759905, “Nonsteroidal 2,3-dihydroquinoline glucocorticoid receptor agonists with reduced PEPCK activation” (Bioorg Med Chem Lett, 2011)

How the values were obtained:
Glucocorticoid receptor [1] = biological target: T1, Glucocorticoid receptor (Homo sapiens, UniProt P04150); experiment: Displacement of radiolabeled Dexamethasone from glucocorticoid receptor expressed in baculovirus
T1 sequence (P04150 whole entry): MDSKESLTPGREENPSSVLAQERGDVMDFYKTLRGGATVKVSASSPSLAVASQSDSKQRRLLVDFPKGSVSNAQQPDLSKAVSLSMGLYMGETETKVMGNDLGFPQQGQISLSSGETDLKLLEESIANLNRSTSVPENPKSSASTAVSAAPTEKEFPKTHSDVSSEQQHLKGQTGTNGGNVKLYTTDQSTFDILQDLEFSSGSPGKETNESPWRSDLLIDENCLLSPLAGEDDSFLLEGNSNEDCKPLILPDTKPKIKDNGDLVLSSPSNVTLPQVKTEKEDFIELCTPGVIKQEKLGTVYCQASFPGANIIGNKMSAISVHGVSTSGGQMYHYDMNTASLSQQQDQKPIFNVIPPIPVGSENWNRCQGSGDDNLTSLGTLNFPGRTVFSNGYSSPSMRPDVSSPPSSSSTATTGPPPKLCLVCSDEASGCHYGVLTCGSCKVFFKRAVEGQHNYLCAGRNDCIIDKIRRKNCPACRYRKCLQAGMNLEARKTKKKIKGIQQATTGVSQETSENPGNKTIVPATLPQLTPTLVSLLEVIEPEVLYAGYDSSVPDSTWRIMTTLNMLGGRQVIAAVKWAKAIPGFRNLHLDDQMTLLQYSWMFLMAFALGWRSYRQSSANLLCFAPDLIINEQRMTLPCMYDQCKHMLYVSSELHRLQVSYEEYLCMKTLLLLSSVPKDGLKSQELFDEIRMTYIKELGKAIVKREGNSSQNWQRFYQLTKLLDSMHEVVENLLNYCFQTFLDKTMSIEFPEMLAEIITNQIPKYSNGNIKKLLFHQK

Glucocorticoid receptor [2] = biological target: T1, Glucocorticoid receptor; experiment: Agonist activity at glucocorticoid receptor in human HepG2 cells co-transfected with GRE assessed as GRE activation by luciferase reporter gene assay; type: functional, cell-based
[3] = biological target: T2, Glucocorticoid receptor (Homo sapiens) (UniProt P04150); experiment: Transrepression activity at glucocorticoid receptor in human HepG2 cells assessed as inhibition of TNFalpha/IL1beta-stimulated NFkappaB-dependent E-selectin repression by luciferase reporter gene assay relative to Dexamethasone; type: cell-based; set-up: scale not given: the % may be the effect or the level left
T2 sequence (whole entry): T1 sequence (P04150 whole entry)

Progesterone receptor = biological target: T3, Progesterone receptor (Homo sapiens, UniProt P06401); experiment: Binding affinity to progesterone receptor
T3 sequence (P06401 whole entry): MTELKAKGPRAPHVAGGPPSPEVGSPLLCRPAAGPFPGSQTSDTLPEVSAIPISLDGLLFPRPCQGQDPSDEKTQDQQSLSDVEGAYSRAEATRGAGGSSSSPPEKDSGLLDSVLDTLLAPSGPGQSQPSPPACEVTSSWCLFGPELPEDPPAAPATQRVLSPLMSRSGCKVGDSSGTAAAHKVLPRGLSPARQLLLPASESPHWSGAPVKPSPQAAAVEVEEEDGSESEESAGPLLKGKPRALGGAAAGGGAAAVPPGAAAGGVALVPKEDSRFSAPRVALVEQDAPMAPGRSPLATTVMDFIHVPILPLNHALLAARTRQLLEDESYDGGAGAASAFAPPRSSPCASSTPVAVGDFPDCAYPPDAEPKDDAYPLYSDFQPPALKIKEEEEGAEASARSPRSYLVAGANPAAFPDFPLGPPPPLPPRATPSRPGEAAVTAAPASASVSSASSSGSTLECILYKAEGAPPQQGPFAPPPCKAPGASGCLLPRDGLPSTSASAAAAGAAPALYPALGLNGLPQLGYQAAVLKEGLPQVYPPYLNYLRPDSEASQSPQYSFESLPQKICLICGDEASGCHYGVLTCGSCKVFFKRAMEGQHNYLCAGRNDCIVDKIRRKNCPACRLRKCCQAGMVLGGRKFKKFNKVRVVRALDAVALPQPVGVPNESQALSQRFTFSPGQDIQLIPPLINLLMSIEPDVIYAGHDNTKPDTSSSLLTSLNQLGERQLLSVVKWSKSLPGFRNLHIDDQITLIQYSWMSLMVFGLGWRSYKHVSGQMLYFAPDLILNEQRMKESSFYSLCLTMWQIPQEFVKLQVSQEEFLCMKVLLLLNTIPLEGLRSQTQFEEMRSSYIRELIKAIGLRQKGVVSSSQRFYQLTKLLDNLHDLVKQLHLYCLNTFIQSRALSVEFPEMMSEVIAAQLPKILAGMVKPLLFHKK

[4] = biological target: T2, Glucocorticoid receptor (Homo sapiens); experiment: Agonist activity at glucocorticoid receptor in human HepG2 cells co-transfected with GRE assessed as GRE activation by luciferase reporter gene assay relative to Dexamethasone; type: functional, cell-based; set-up: concentration or dose not given beside the values
Androgen receptor = biological target: T4, Androgen receptor (Homo sapiens, UniProt P10275); experiment: Binding affinity to androgen receptor
T4 sequence (P10275 whole entry): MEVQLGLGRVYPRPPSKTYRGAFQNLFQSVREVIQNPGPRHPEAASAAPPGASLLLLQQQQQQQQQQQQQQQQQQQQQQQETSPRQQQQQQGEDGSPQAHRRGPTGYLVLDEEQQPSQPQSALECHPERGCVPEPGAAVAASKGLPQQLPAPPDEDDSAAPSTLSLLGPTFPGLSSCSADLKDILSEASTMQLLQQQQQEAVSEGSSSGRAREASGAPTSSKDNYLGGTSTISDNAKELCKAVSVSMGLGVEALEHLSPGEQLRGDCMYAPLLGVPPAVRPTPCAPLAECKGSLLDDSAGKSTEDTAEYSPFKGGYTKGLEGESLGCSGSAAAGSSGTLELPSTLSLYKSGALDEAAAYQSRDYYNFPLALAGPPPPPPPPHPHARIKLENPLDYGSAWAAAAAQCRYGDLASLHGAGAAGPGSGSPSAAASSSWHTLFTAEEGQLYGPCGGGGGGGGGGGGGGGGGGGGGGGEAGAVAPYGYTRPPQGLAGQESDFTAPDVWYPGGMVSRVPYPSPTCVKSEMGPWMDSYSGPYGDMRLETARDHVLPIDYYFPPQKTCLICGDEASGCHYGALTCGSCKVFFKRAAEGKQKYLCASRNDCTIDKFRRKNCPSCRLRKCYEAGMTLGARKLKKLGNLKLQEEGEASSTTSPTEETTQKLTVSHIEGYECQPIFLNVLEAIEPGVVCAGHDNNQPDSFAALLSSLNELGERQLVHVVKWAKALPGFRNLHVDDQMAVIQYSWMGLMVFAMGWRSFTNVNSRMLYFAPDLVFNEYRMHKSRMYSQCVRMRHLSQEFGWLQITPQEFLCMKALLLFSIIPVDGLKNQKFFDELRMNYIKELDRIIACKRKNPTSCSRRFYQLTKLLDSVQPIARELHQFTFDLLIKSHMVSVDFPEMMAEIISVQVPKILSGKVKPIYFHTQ

Glucocorticoid receptor [5] = biological target: T1, Glucocorticoid receptor; experiment: Agonist activity at glucocorticoid receptor in human HepG2 cells co-transfected with PEPCK assessed as GRE activation by luciferase reporter gene assay; type: functional, cell-based

Question: Which Ki (Glucocorticoid receptor [1]) does the source give for `CO/N=C1/c2c(cc(F)c(-c3cccc4c(C)c[nH]c34)c2F)NC(C)(C)C1O` (racemic) here?
Answer: Its Ki is 3.8 nM.

Question: What about the EC50 (Glucocorticoid receptor [2]) of the same compound?
Answer: Its EC50 is 3.9 nM.

Question: And the Activity [3]?
Answer: The Activity was 96%.

Question: What about the Ki (Progesterone receptor) of the same compound?
Answer: Its Ki is 3800 nM.

Question: And the Activity [4]?
Answer: The Activity was 150%.

Question: And the Ki (Androgen receptor)?
Answer: The Ki was 2800 nM.

Question: What about the EC50 (Glucocorticoid receptor [5]) of the same compound?
Answer: Its EC50 is 560 nM.

Question: Which Ki (Glucocorticoid receptor [1]) does the source give for `CC1(C)C/C(=N\OC(C)(C)C)c2c(cc(F)c(-c3cccc4c(Cl)c[nH]c34)c2F)N1` here?
Answer: The Ki was 2 nM.

Question: What about the EC50 (Glucocorticoid receptor [2]) of the same compound?
Answer: The EC50 was 3.4 nM.

Question: What about the Activity [3] of the same compound?
Answer: Its Activity is 94%.

Question: And the Ki (Progesterone receptor)?
Answer: The Ki was 570 nM.

Question: What about the Activity [4] of the same compound?
Answer: The Activity was 97%.

Question: And the Ki (Androgen receptor)?
Answer: Its Ki is 90 nM.

Question: What about the EC50 (Glucocorticoid receptor [5]) of the same compound?
Answer: Its EC50 is 67 nM.

Question: How did the Ki (Glucocorticoid receptor [1]) turn out when `Cc1c[nH]c2c(-c3c(F)cc4c(c3F)/C(=N/OC(C)(C)CO)CC(C)(C)N4)cccc12` was run?
Answer: Its Ki is 0.8 nM.

Question: And the EC50 (Glucocorticoid receptor [2])?
Answer: The EC50 was 19 nM.

Question: What about the Activity [3] of the same compound?
Answer: The Activity was 91%.

Question: And the Ki (Progesterone receptor)?
Answer: Its Ki is 950 nM.

Question: What about the Activity [4] of the same compound?
Answer: The Activity was 130%.

Question: And the Ki (Androgen receptor)?
Answer: The Ki was 290 nM.

Question: What about the EC50 (Glucocorticoid receptor [5]) of the same compound?
Answer: Its EC50 is 350 nM.

Question: Which results are given for `Cc1c[nH]c2c(-c3c(F)cc4c(c3F)/C(=N/OC(C)C)CC(C)(C)N4)cccc12`?
Answer: Ki (Glucocorticoid receptor [1]): 2.7 nM; EC50 (Glucocorticoid receptor [2]): 0.6 nM; Activity [3]: 90%; Ki (Progesterone receptor): 380 nM; Activity [4]: 138%; Ki (Androgen receptor): 1500 nM; EC50 (Glucocorticoid receptor [5]): 250 nM

Question: Which Ki (Glucocorticoid receptor [1]) does the source give for `Cc1c[nH]c2c(-c3c(F)cc4c(c3F)/C(=N/OC(C)(C)C)CC(C)(C)N4)cccc12` here?
Answer: The Ki was 2.2 nM.

Question: And the EC50 (Glucocorticoid receptor [2])?
Answer: Its EC50 is 5 nM.

Question: What about the Activity [3] of the same compound?
Answer: Its Activity is 91%.

Question: What about the Ki (Progesterone receptor) of the same compound?
Answer: Its Ki is 220 nM.

Question: And the Activity [4]?
Answer: Its Activity is 97%.

Question: And the Ki (Androgen receptor)?
Answer: The Ki was 1000 nM.

Question: And the EC50 (Glucocorticoid receptor [5])?
Answer: The EC50 was 70 nM.
